Reference: patent publication US20140329797A1, “SUBSTITUTED OXADIAZOLYL PYRIDINONES AND OXADIAZOLYL PYRIDAZINONES AS HIF INHIBITORS” (Bayer Intellectual Property GmbH, priority 2011, published 2014)
pIC50: −log10 of the molar value.

Test system: HCT 116 cells transfected with a luciferase reporter under the control of an HIF-responsive sequence
Assay: HIF-luciferase assay
Format: cell-based
Conditions: Homo sapiens; HCT 116 HIF-luciferase reporter cells, hypoxia chamber (1% O2), 24 h; in some cases means of up to four individual determinations
Description: B-1. HIF-Luciferase Assay
HCT 116 cells were transfected in a stable manner with a plasmid which contained a luciferase reporter under the control of an HIF-responsive sequence. These cells were sown in microtitre plates [20000 cells/cavity in RPMI 1640 medium with 10% foetal calf serum (FCS) and 100 μg/ml of hygromycin]. Incubation was carried out overnight under standard conditions (5% CO2, 21% O2, 37° C., moistened). The following morning the cells were incubated with various concentrations of the test substances (0-10 μmol/l) in a hypoxia chamber (1% O2). After 24 h, Bright Glo reagent (Promega, Wisconsin, USA) was added in accordance with the manufacturer's instructions, and after 5 min the luminescence was measured. Cells which were incubated under normoxia served as background controls.

Row | Compound | pIC50
1 | Cc1ccc(Cn2cc(-c3nc(-c4ccc(OC(F)(F)F)cc4)no3)ccc2=O)cc1 [Example 1, 1-(4-Methylbenzyl)-5-{3-[4-(trifluoromethoxy)phenyl]-1,2,4-oxadiazol-5-yl}pyridin-2(1H)-one] | 7.35
2 | Cc1ccc(Cn2cc(-c3nc(-c4ccc(C(C)(C)C(F)(F)F)cc4)no3)ccc2=O)cc1 [Example 2, 1-(4-Methylbenzyl)-5-{3-[4-(1,1,1-trifluoro-2-methylpropan-2-yl)phenyl]-1,2,4-oxadiazol-5-yl}pyridin-2(1H)-one] | 7.40
3 | CC(C)(c1ccc(-c2noc(-c3ccc(=O)n(Cc4ccc(Cl)cc4)c3)n2)cc1)C(F)(F)F [Example 4, 1-(4-Chlorobenzyl)-5-{3-[4-(1,1,1-trifluoro-2-methylpropan-2-yl)phenyl]-1,2,4-oxadiazol-5-yl}pyridin-2(1H)-one] | 7.30
4 | Nc1ccc(Cn2cc(-c3nc(-c4ccc(OC(F)(F)F)cc4)no3)ccc2=O)cc1 [Example 7, 1-(4-Aminobenzyl)-5-{3-[4-(trifluoromethoxy)phenyl]-1,2,4-oxadiazol-5-yl}pyridin-2(1H)-one] | 7.70
5 | O=c1ccc(-c2nc(-c3ccc(C4(C(F)(F)F)CC4)cc3)no2)cn1Cc1cccc(N2CC(O)C2)c1 [Example 16, 1-[3-(3-Hydroxyazetidin-1-yl)benzyl]-5-(3-{4-[1-(trifluoromethyl)cyclopropyl]phenyl}-1,2,4-oxadiazol-5-yl)pyridin-2(1H)-one] | 8.30
6 | COC(=O)c1cccc(Cn2cc(-c3nc(-c4ccc(C(C)(C)C(F)(F)F)cc4)no3)ccc2=O)c1 [Example 19, Methyl 3-{[2-oxo-5-{3-[4-(1,1,1-trifluoro-2-methylpropan-2-yl)phenyl]-1,2,4-oxadiazol-5-yl}pyridin-1(2H)-yl]methyl}benzoate] | 7.52
7 | CNC(=O)c1cccc(Cn2cc(-c3nc(-c4ccc(C(C)(C)C(F)(F)F)cc4)no3)ccc2=O)c1 [Example 21, N-Methyl-3-{[2-oxo-5-{3-[4-(1,1,1-trifluoro-2-methylpropan-2-yl)phenyl]-1,2,4-oxadiazol-5-yl}pyridin-1(2H)-yl]methyl}benzamide] | 7.52
8 | CN(C)C(=O)c1cccc(Cn2cc(-c3nc(-c4ccc(OC(F)(F)F)cc4)no3)ccc2=O)c1 [Example 22, N,N-Dimethyl-3-{[2-oxo-5-{3-[4-(trifluoromethoxy)phenyl]-1,2,4-oxadiazol-5-yl}pyridin-1(2H)-yl]methyl}benzamide] | 7.70
9 | CN(C)C(=O)c1cccc(Cn2cc(-c3nc(-c4ccc(C(C)(C)C(F)(F)F)cc4)no3)ccc2=O)c1 [Example 23, N,N-Dimethyl-3-{[2-oxo-5-{3-[4-(1,1,1-trifluoro-2-methylpropan-2-yl)phenyl]-1,2,4-oxadiazol-5-yl}pyridin-1(2H)-yl]methyl}benzamide] | 7.82
10 | CC(C)(c1ccc(-c2noc(-c3ccc(=O)n(Cc4cccc(C(=O)N5CCC5)c4)c3)n2)cc1)C(F)(F)F [Example 25, 1-[3-(Azetidin-1-ylcarbonyl)benzyl]-5-{3-[4-(1,1,1-trifluoro-2-methylpropan-2-yl)phenyl]-1,2,4-oxadiazol-5-yl}pyridin-2(1H)-one] | 8.30
11 | CC(C)(c1ccc(-c2noc(-c3ccc(=O)n(Cc4cccc(C(=O)N5CCC(O)CC5)c4)c3)n2)cc1)C(F)(F)F [Example 33, 1-{3-[(4-Hydroxypiperidin-1-yl)carbonyl]benzyl}-5-{3-[4-(1,1,1-trifluoro-2-methylpropan-2-yl)phenyl]-1,2,4-oxadiazol-5-yl}pyridin-2(1H)-one] | 8.22
12 | O=C(c1cccc(Cn2cc(-c3nc(-c4ccc(OC(F)(F)F)cc4)no3)ccc2=O)c1)N1CCOCC1 [Example 34, 1-[3-(Morpholin-4-ylcarbonyl)benzyl]-5-{3-[4-(trifluoromethoxy)phenyl]-1,2,4-oxadiazol-5-yl}pyridin-2(1H)-one] | 8.40
13 | CC(C)(c1ccc(-c2noc(-c3ccc(=O)n(Cc4cccc(C(=O)N5CCOCC5)c4)c3)n2)cc1)C(F)(F)F [Example 35, 1-[3-(Morpholin-4-ylcarbonyl)benzyl]-5-{3-[4-(1,1,1-trifluoro-2-methylpropan-2-yl)phenyl]-1,2,4-oxadiazol-5-yl}pyridin-2(1H)-one] | 7.70
14 | CN1CCN(C(=O)c2cccc(Cn3cc(-c4nc(-c5ccc(OC(F)(F)F)cc5)no4)ccc3=O)c2)CC1 [Example 36, 1-{3-[(4-Methylpiperazin-1-yl)carbonyl]benzyl}-5-{3-[4-(trifluoromethoxy)phenyl]-1,2,4-oxadiazol-5-yl}pyridin-2(1H)-one] | 8.30
15 | CN1CCN(C(=O)c2cccc(Cn3cc(-c4nc(-c5ccc(C(C)(C)C(F)(F)F)cc5)no4)ccc3=O)c2)CC1 [Example 37, 1-{3-[(4-Methylpiperazin-1-yl)carbonyl]benzyl}-5-{3-[4-(1,1,1-trifluoro-2-methylpropan-2-yl)phenyl]-1,2,4-oxadiazol-5-yl}pyridin-2(1H)-one] | 8.00
16 | O=C(c1cccc(Cn2cc(-c3nc(-c4ccc(OC(F)(F)F)cc4)no3)ccc2=O)c1)N1CCN(C2CC2)CC1 [Example 38, 1-{3-[(4-Cyclopropylpiperazin-1-yl)carbonyl]benzyl}-5-{3-[4-(trifluoromethoxy)phenyl]-1,2,4-oxadiazol-5-yl}pyridin-2(1H)-one] | 8.52
17 | CC(C)(c1ccc(-c2noc(-c3ccc(=O)n(Cc4cccc(C(=O)N5CCN(C6CC6)CC5)c4)c3)n2)cc1)C(F)(F)F [Example 39, 1-{3-[(4-Cyclopropylpiperazin-1-yl)carbonyl]benzyl}-5-{3-[4-(1,1,1-trifluoro-2-methylpropan-2-yl)phenyl]-1,2,4-oxadiazol-5-yl}pyridin-2(1H)-one] | 8.30

The next compounds have a higher pIC50 than those just listed; values first:

Row | pIC50 | Compound
18 | 8.82 | N#CC1CCN(c2cccc(Cn3cc(-c4nc(-c5ccc(OC(F)(F)F)cc5)no4)ccc3=O)c2)CC1 [Example 9, 1-(3-{[2-oxo-5-{3-[4-(trifluoromethoxy)phenyl]-1,2,4-oxadiazol-5-yl}pyridin-1(2H)-yl]methyl}phenyl)piperidine-4-carbonitrile]
19 | 9.00 | N#CC1CCN(c2cccc(Cn3cc(-c4nc(-c5ccc(SC(F)(F)F)cc5)no4)ccc3=O)c2)CC1 [Example 10, 1-(3-{[2-oxo-5-(3-{4-[(trifluoromethyl)sulphanyl]phenyl}-1,2,4-oxadiazol-5-yl)pyridin-1(2H)-yl]methyl}phenyl)piperidine-4-carbonitrile]
20 | 8.70 | CC(C)(c1ccc(-c2noc(-c3ccc(=O)n(Cc4cccc(N5CCC(C#N)CC5)c4)c3)n2)cc1)C(F)(F)F [Example 11, 1-(3-{[2-oxo-5-{3-[4-(1,1,1-trifluoro-2-methylpropan-2-yl)phenyl]-1,2,4-oxadiazol-5-yl}pyridin-1(2H)-yl]methyl}phenyl)piperidine-4-carbonitrile]
21 | 8.82 | N#CC1CCN(c2cccc(Cn3cc(-c4nc(-c5ccc(C6(C(F)(F)F)CC6)cc5)no4)ccc3=O)c2)CC1 [Example 12, 1-(3-{[2-oxo-5-(3-{4-[1-(trifluoromethyl)cyclopropyl]phenyl}-1,2,4-oxadiazol-5-yl)pyridin-1(2H)-yl]methyl}phenyl)piperidine-4-carbonitrile]
22 | 8.70 | O=c1ccc(-c2nc(-c3ccc(OC(F)(F)F)cc3)no2)cn1Cc1cccc(N2CC(O)C2)c1 [Example 13, 1-[3-(3-Hydroxyazetidin-1-yl)benzyl]-5-{3-[4-(trifluoromethoxy)phenyl]-1,2,4-oxadiazol-5-yl}pyridin-2(1H)-one]
23 | 8.70 | O=c1ccc(-c2nc(-c3ccc(SC(F)(F)F)cc3)no2)cn1Cc1cccc(N2CC(O)C2)c1 [Example 14, 1-[3-(3-Hydroxyazetidin-1-yl)benzyl]-5-(3-{4-[(trifluoromethyl)sulphanyl]phenyl}-1,2,4-oxadiazol-5-yl)pyridin-2(1H)-one]
24 | 8.70 | CC(C)(c1ccc(-c2noc(-c3ccc(=O)n(Cc4cccc(N5CC(O)C5)c4)c3)n2)cc1)C(F)(F)F [Example 15, 1-[3-(3-Hydroxyazetidin-1-yl)benzyl]-5-{3-[4-(1,1,1-trifluoro-2-methylpropan-2-yl)phenyl]-1,2,4-oxadiazol-5-yl}pyridin-2(1H)-one]
25 | 9.00 | CC(C)(c1ccc(-c2noc(-c3ccc(=O)n(Cc4cccc(C(=O)N5CC(O)C5)c4)c3)n2)cc1)C(F)(F)F [Example 27, 1-{3-[(3-Hydroxyazetidin-1-yl)carbonyl]benzyl}-5-{3-[4-(1,1,1-trifluoro-2-methylpropan-2-yl)phenyl]-1,2,4-oxadiazol-5-yl}pyridin-2(1H)-one]
26 | 8.70 | O=C(c1cccc(Cn2cc(-c3nc(-c4ccc(OC(F)(F)F)cc4)no3)ccc2=O)c1)N1CCCC1 [Example 28, 1-[3-(Pyrrolidin-1-ylcarbonyl)benzyl]-5-{3-[4-(trifluoromethoxy)phenyl]-1,2,4-oxadiazol-5-yl}pyridin-2(1H)-one]
27 | 8.70 | O=C(c1cccc(Cn2cc(-c3nc(-c4ccc(OC(F)(F)F)cc4)no3)ccc2=O)c1)N1CCCO1 [Example 30, 1-[3-(1,2-Oxazolidin-2-ylcarbonyl)benzyl]-5-{3-[4-(trifluoromethoxy)phenyl]-1,2,4-oxadiazol-5-yl}pyridin-2(1H)-one]
28 | 8.70 | O=C(c1cccc(Cn2cc(-c3nc(-c4ccc(OC(F)(F)F)cc4)no3)ccc2=O)c1)N1CCC(O)CC1 [Example 32, 1-{3-[(4-Hydroxypiperidin-1-yl)carbonyl]benzyl}-5-{3-[4-(trifluoromethoxy)phenyl]-1,2,4-oxadiazol-5-yl}pyridin-2(1H)-one]
29 | 8.60 | CC(=O)OC1(c2cccc(Cn3cc(-c4nc(-c5ccc(OC(F)(F)F)cc5)no4)ccc3=O)c2)CC1 [Example 40, 1-(3-{[2-Oxo-5-{3-[4-(trifluoromethoxy)phenyl]-1,2,4-oxadiazol-5-yl}pyridin-1(2H)-yl]methyl}phenyl)cyclopropyl acetate]
